Consider 18 molecules from ChEMBL document CHEMBL3091294, “Design, synthesis and evaluation of novel 4-dimethylamine flavonoid derivatives as potential multi-functional anti-Alzheimer agents” (Bioorg Med Chem, 2013).

In assay [1] the target is Amyloid-beta precursor protein (Homo sapiens) (UniProt P05067). The experiment in a line: Inhibition of amyloid beta (1 to 42) aggregation (unknown origin) at 20 uM after 48 hrs by thioflavin-T fluorescence assay relative to control.
Assay [2] concerns the target T1, Acetylcholinesterase (Electrophorus electricus, UniProt O42275).
Description: Inhibition of electric eel AChE using acetylthiocholine chloride as substrate incubated for 15 mins prior to substrate addition by Ellman's method
The target in assay [3] is Cholinesterase (Equus caballus, UniProt P81908).
Cholinesterase, sequence (P81908 whole entry): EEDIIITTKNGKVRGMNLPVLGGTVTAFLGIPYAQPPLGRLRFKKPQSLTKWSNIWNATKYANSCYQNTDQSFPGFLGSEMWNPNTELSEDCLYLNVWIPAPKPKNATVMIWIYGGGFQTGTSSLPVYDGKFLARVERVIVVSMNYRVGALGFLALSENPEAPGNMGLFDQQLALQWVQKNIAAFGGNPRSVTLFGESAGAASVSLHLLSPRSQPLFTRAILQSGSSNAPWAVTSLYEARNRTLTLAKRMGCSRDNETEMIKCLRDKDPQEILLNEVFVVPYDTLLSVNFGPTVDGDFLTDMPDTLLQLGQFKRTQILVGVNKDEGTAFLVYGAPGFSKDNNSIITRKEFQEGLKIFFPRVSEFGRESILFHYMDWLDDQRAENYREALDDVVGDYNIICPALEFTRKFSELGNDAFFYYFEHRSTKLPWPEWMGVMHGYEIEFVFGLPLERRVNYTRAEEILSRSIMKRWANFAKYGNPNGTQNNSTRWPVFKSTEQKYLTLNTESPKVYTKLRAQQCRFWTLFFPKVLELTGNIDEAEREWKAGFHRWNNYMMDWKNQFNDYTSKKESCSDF
Description: Inhibition of equine serum BChE using butylthiocholine chloride as substrate incubated for 15 mins prior to substrate addition by Ellman's method
Assay [4] is described as follows: Antioxidant activity assessed as trolox equivalent of peroxyl radical scavenging activity at 1 to 5 uM after 15 mins by oxygen radical absorbance capacity-fluorescein assay. The class given is functional.
The target in assay [5] is T1, Acetylcholinesterase. The assay is described as follows: Mixed-type inhibition of electric eel AChE using acetylthiocholine chloride as substrate incubated for 15 mins prior to substrate addition by Lineweaver-Burk plot analysis.

Where only a bound is given, the exact number is not on record here.

T1 sequence (O42275 whole entry): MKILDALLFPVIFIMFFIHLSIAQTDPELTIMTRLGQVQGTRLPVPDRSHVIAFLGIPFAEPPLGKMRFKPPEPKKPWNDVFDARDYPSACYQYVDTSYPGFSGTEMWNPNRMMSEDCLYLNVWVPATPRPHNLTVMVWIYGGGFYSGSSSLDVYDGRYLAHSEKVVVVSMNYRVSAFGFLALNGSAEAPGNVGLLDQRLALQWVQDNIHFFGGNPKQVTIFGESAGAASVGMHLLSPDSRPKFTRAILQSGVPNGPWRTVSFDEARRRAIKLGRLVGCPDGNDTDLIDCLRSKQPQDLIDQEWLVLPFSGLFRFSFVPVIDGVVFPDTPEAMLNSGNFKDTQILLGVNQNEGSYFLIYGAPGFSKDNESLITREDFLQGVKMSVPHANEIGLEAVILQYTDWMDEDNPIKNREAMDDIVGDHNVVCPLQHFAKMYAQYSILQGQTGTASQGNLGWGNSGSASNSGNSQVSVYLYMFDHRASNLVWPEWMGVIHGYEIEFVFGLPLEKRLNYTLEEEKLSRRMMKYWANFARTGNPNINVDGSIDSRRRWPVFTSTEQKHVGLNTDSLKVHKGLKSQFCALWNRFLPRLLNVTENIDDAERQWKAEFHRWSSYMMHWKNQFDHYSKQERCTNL
Amyloid-beta precursor protein (Homo sapiens), sequence (P05067 whole entry): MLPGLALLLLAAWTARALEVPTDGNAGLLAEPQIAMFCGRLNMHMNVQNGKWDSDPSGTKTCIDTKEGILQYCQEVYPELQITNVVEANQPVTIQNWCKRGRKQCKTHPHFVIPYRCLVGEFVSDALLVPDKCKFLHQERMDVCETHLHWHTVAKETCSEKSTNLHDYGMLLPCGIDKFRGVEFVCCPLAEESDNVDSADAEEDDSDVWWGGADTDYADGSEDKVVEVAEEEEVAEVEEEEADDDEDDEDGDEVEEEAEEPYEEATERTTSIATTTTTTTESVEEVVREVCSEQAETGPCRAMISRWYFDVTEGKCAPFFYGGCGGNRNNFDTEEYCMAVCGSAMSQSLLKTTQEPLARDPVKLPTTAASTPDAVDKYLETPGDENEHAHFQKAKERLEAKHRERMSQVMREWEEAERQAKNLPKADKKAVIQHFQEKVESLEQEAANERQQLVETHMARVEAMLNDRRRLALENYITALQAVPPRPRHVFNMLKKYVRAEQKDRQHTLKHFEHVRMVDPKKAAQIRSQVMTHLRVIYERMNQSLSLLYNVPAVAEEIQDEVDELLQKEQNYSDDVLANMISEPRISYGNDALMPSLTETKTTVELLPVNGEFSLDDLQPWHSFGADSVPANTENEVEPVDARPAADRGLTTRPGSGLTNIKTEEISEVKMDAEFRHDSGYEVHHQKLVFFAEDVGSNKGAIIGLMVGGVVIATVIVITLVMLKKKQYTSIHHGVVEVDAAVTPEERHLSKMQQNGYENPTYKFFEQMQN

With `CN(C)c1ccc(-c2cc(=O)c3ccc(OCCCCCCN4CCCCC4)cc3o2)cc1`, the inhibition in assay [1] was 25.4%. Besides, the IC50 came to 6.73 µM in assay [2] and 5.52 µM in assay [3].
Consider `CN(CCCCOc1ccc2c(=O)cc(-c3ccc(N(C)C)cc3)oc2c1)Cc1ccccc1`, for which, in assay [1], the inhibition is 39.1%. The IC50 is 8.29 µM in assay [2] and above 50 µM in assay [3].
On to `CN(CCCCCCCCOc1ccc2c(=O)cc(-c3ccc(N(C)C)cc3)oc2c1)Cc1ccccc1`, for which the Activity in assay [4] is 1.5. The inhibition in assay [1] was determined as 39.5%. Further, the IC50 in assay [2] was 24 µM; in assay [3] it was above 50 µM.
In turn, `CN(CCCCCCOc1ccc2c(=O)cc(-c3ccc(N(C)C)cc3)oc2c1)Cc1ccccc1` displayed an inhibition in assay [1] of 46.5%. Further, the IC50 in assay [2] is 7.85 µM; in assay [3] it was above 50 µM.
On to `CN(C)c1ccc(-c2cc(=O)c3ccc(OCCCCCCCCCCN4CCCC4)cc3o2)cc1`, for which the Activity in assay [4] came to 1.5. The molecule also displayed an inhibition in assay [1] of 38.6%. The IC50 is 2.26 µM in assay [2] and 0.82 µM in assay [3].
In assay [1], `CCN(CC)CCCCOc1ccc2c(=O)cc(-c3ccc(N(C)C)cc3)oc2c1` returned an inhibition of 33.2%. Besides, the IC50 in assay [2] was 2.24 µM; in assay [3] it was 7.88 µM.
Consider `CCN(CC)CCCCCCOc1ccc2c(=O)cc(-c3ccc(N(C)C)cc3)oc2c1`, for which the inhibition in assay [1] was 38.1%. Also, the IC50 is 3.11 µM in assay [2] and 4.61 µM in assay [3].
The molecule `CN(C)c1ccc(-c2cc(=O)c3ccc(OCCCCCCN4CCCC4)cc3o2)cc1` displayed an inhibition in assay [1] of 32.6%. In addition, the IC50 in assay [2] is 9.18 µM; in assay [3], 11.5 µM.
As to `CN(C)c1ccc(-c2cc(=O)c3ccc(OCCCCCCCCN4CCCCC4)cc3o2)cc1`, the Activity in assay [4] is 1.5. The same molecule returned an inhibition in assay [1] of 34.8%. Besides, the results for the IC50 in assay [2] and in assay [3] were 7.88 µM and 8.72 µM, respectively.
In assay [1], `CN(CCCCCCCCCCCCOc1ccc2c(=O)cc(-c3ccc(N(C)C)cc3)oc2c1)Cc1ccccc1` had an inhibition of 48.1%. The results for the IC50 in assay [2] and in assay [3] were 33.2 µM and above 50 µM, respectively.
For `CN(C)c1ccc(-c2cc(=O)c3ccc(OCCCCN4CCCCC4)cc3o2)cc1`, the inhibition in assay [1] is 30.6%. Moreover, the half-maximal inhibitory concentration (IC50) in assay [2] was found to be 3.04 µM; in assay [3], 6.12 µM.
As to `CN(C)c1ccc(-c2cc(=O)c3ccc(OCCCCN4CCCC4)cc3o2)cc1`, the inhibition in assay [1] was determined as 36.6%. For the same molecule, the IC50 in assay [2] turned out to be 2.77 µM; in assay [3], 6.14 µM.
`CN(C)c1ccc(-c2cc(=O)c3ccc(OCCCCCCCCCCN4CCCCC4)cc3o2)cc1`: in assay [4], the Activity was determined as 1.5. In addition, the inhibition in assay [1] turned out to be 40.7%. For the same molecule, the IC50 is above 50 µM in assay [2] and 2.42 µM in assay [3].
On to `CN(C)c1ccc(-c2cc(=O)c3ccc(OCCCCN4CCOCC4)cc3o2)cc1`, for which the inhibition in assay [1] is 44.7%. The IC50 in assay [2] was above 50 µM; in assay [3], 10.1 µM.
Turning to `CN(CCCCCCCCCCOc1ccc2c(=O)cc(-c3ccc(N(C)C)cc3)oc2c1)Cc1ccccc1`, in assay [4], the Activity stood at 1.5. In assay [1], this molecule showed an inhibition of 29.4%. Further, the results for the IC50 in assay [2] and in assay [3] were 11.4 µM and above 50 µM, respectively.
For the molecule `CN(C)c1ccc(-c2cc(=O)c3ccc(OCCCCCCCCN4CCCC4)cc3o2)cc1`, the Activity in assay [4] came out at 1.5. In assay [1], this molecule came in with an inhibition of 42.1%. Further, the IC50 in assay [2] was 1.99 µM; in assay [3] it was 2.6 µM.
With `CCN(CC)CCCCCCCCOc1ccc2c(=O)cc(-c3ccc(N(C)C)cc3)oc2c1`, the Activity in assay [4] is 1.5. Moreover, the Ki in assay [5] was 0.386 µM. Also, the inhibition in assay [1] was found to be 45.8%. The IC50 in assay [2] is 1.83 µM; in assay [3], 5.01 µM.
Consider `CCN(CC)CCCCCCCCCCOc1ccc2c(=O)cc(-c3ccc(N(C)C)cc3)oc2c1`, for which the Activity in assay [4] amounted to 1.5. The inhibition in assay [1] came out at 33.4%. The IC50 in assay [2] was found to be 3.74 µM; in assay [3] it was 2.31 µM.
